15 compounds from US8637537B2, “Serine/threonine kinase inhibitors” (Genentech, Inc., priority 2011, dated 2014) can be followed below.

For the assay, the target named is T1, human recombinant GST-PAK1-KD protein (Homo sapiens, UniProt Q13153).
T1 construct: residues #249-545 of human PAK1, UniProtKP/Swiss Q13153; His6 (N); made in house; host or cells: Sf9 insect cells, pAcGP67 baculovirus expression vector
The experiment in a line: GST-PAK1-KD (kinase domain) biochemical assay, microfluidic mobility shift. The following applies: Table I, PAK1 Ki class; read-out: Ki. Here is the method:
Activity of human recombinant GST-PAK1-KD protein was assessed in vitro assay by observing the phosphorylation of a fluorogenic peptide substrate.
The peptide substrate is a consensus sequence based on various PAK1 substrates reported in the scientific literature. […] Incubations were carried out at 22° C. in MatriCal MP101 384-well Metriplates™. […] Following the 30-minute incubation, the assay mixtures were quenched by the addition of 3 μL of 250 mM EDTA, and the substrate and phosphorylated product were separated by capillary electrophoresis and detected using LabChip® Caliper 3000 (Caliper Life Sciences).

T1 sequence (Q13153 249-545): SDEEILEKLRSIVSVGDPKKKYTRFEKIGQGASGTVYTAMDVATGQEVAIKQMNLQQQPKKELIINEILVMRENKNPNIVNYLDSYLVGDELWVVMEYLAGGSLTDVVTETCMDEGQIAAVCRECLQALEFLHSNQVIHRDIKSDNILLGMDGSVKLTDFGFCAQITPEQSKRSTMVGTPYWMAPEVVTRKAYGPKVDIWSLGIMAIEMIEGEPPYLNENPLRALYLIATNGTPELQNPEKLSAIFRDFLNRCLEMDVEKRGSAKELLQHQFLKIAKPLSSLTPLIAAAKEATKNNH

As for `Cc1cnc(NCc2ccc3[nH]cnc3c2)nc1Nc1cc(C2CC2)[nH]n1` [I-32, N^2-(1H-Benzoimidazol-5-ylmethyl)-N^4-(5-cyclopropyl-1H-pyrazol-3-yl)-5-methyl-pyrimidine-2,4-diamine], the inhibition constant Ki lay within 250 to 1000 nM.
The result for `Cn1ccc2cc(CNc3nccc(Nc4cc(C5CC5)[nH]n4)n3)ccc21` [I-33, N^4-(5-Cyclopropyl-1H-pyrazol-3-yl)-N^2-((1-methyl-1H-indol-5-yl)methyl)pyrimidine-2,4-diamine] reads 250 to 1000 nM.
On to `C[C@H](Nc1nccc(Nc2cc(C3CC3)[nH]n2)n1)c1ccc2cc[nH]c2c1` [I-34, (S)—N^2-(1-(1H-indol-6-yl)ethyl)-N^4-(5-cyclopropyl-1H-pyrazol-3-yl)pyrimidine-2,4-diamine], for which the Ki was in the range of 250 to 1000 nM.
For the compound `c1cc(Nc2cc(C3CC3)[nH]n2)nc(NCc2ccc3cc[nH]c3c2)n1` [I-35, N^2-((1H-Indol-6-yl)methyl)-N^4-(5-cyclopropyl-1H-pyrazol-3-yl)pyrimidine-2,4-diamine], the Ki was above 1000 nM.
On to `c1cc(CNc2nccc(Nc3cc(C4CCC4)[nH]n3)n2)c2cc[nH]c2c1` [I-36, N^2-((1H-indol-4-yl)methyl)-N^4-(5-cyclobutyl-1H-pyrazol-3-yl)pyrimidine-2,4-diamine], for which the Ki is below 50 nM.
With `O=C(c1c[nH]c2cccc(CNc3nccc(Nc4cc(C5CC5)[nH]n4)n3)c12)C(F)(F)F` [I-37, 1-(4-((4-(5-cyclopropyl-1H-pyrazol-3-ylamino)pyrimidin-2-ylamino)methyl)-1H-indol-3-yl)-2,2,2-trifluoroethanone], the Ki is below 50 nM.
Consider `c1cc(CNc2nccc(Nc3cc(C4CC4)[nH]n3)n2)c2cc[nH]c2c1` [I-38, N^2-((1H-Indol-4-yl)methyl)-N^4-(5-cyclopropyl-1H-pyrazol-3-yl)pyrimidine-2,4-diamine], for which the Ki lay in the range of 50 to 250 nM.
In the case of `CN(Cc1cccc2[nH]ccc12)c1nccc(Nc2cc(C3CC3)[nH]n2)n1` [I-40, N^2-((1H-Indol-4-yl)methyl)-N^4-(5-cyclopropyl-1H-pyrazol-3-yl)-N^2-methylpyrimidine-2,4-diamine] it was 50 to 250 nM; in that of `FC(F)(F)c1cc(Nc2cc(C3CC3)[nH]n2)nc(NCc2cccc3[nH]ccc23)n1` [I-41, N^2-((1H-indol-4-yl)methyl)-N^4-(5-cyclopropyl-1H-pyrazol-3-yl)-6-(trifluoromethyl)pyrimidine-2,4-diamine], 250 to 1000 nM.
`c1cc(CNc2nccc(Nc3cc(OCC4CC4)[nH]n3)n2)c2cc[nH]c2c1` [I-42, N^2-((1H-indol-4-yl)methyl)-N^4(5-(cyclopropylmethoxy)-1H-pyrazol-3-yl)pyrimidine-2,4-diamine]: the inhibitory constant (Ki) is 250 to 1000 nM.
Take `CC[C@@H](Nc1nccc(Nc2cc(C3CC3)[nH]n2)n1)c1ccc2[nH]cnc2c1` [I-43, N^2-[(1R)-1-(1H-benzimidazol-5-yl)propyl]-N^4-(5-cyclopropyl-1H-pyrazol-3-yl)pyrimidine-2,4-diamine]: the Ki is 250 to 1000 nM.
Consider `C[C@H](Nc1nccc(Nc2cc(C3CCCO3)[nH]n2)n1)c1ccc2[nH]cnc2c1` (stereo partly drawn) [I-44, N^2—((S)-1-(1H-benzo[d]imidazol-5-yl)ethyl)-N^4-(5-(tetrahydrofuran-2-yl)-1H-pyrazol-3-yl)pyrimidine-2,4-diamine], for which the Ki is 50 to 250 nM.
As to `C[C@H](Nc1ncc(Cl)c(Nc2cc(C3CC3)[nH]n2)n1)c1ccc2[nH]cnc2c1` [I-46, (S)—N^2-(1-(1H-benzo[d]imidazol-5-yl)ethyl)-5-chloro-N^4-(5-cyclopropyl-1H-pyrazol-3-yl)pyrimidine-2,4-diamine], the inhibition constant Ki fell in the range of 50 to 250 nM.
For `Fc1ccc(CNc2nccc(Nc3cc(C4CC4)[nH]n3)n2)c2cc[nH]c12` [I-47, N^4-(5-cyclopropyl-1H-pyrazol-3-yl)-N^2-((7-fluoro-1H-indol-4-yl)methyl)pyrimidine-2,4-diamine], the inhibition constant (Ki) fell in the range of 250 to 1000 nM.
As to `c1cc(CNc2nccc(Nc3cc(CC4CC4)[nH]n3)n2)c2cc[nH]c2c1` [I-48, N^2-((1H-indol-4-yl)methyl)-N^4-(5-(cyclopropylmethyl)-1H-pyrazol-3-yl)pyrimidine-2,4-diamine], the Ki was in the range of 50 to 250 nM.

Broadly, the Ki is the dissociation constant of the complex between target and ligand, obtained from inhibition or displacement.
